Measured values from paper PMC8222254, “Self-assembly of an anion receptor with metal-dependent kinase inhibition and potent in vitro anti-cancer properties” (Nature Communications, 2021).
“And” between values parts separate entries of the source, which are not always exact repeats. Equal values may be shown once. Read-outs that look alike come from different tables or passages of the source.

Key:
Experiment in all cases: Chemosensitivity, 96 h continuous exposure, MTT assay
Assay type in all cases: cell-based, human
ARPE-19 non-cancer cells = system: ARPE-19 non-cancer cells
Source text: (§1) All cell lines were purchased from and maintained as monolayers as described by the American Type Culture Collection with the exception of the p53^+/+ and p53^−/− isogenic clones of HCT116 human colorectal adenocarcinoma cells which were a kind gift from Professor Bert Vogelstein[54]. GBM1 cells were established from a primary GBM tumour by Heiko Wurdak and colleagues[32],[33]. Non-cancerous adult brain neural progenitor (NP1) cells were derived from a patient undergoing surgery to treat epilepsy[32],[33]. Cell culture and growth media for NP1 and GBM1 cells were as described[32],[33]. The response of cells following a continuous 96-h exposure to test compounds and platinates was determined using the MTT assay. Potency was recorded as the IC50 and the selectivity index (SI) was defined as the ratio of IC50 values for non-cancer to cancer cell lines with values >1 representing selectivity for cancer cells as opposed to non-cancer cells.
(§2) All cell lines used were maintained at low passage in antibiotic-free media. HT29, DLD-1, HCT116 p53^+/+ and HCT116 p53^−/− are all colorectal adenocarcinoma cell lines derived from different individuals and harbour different combinations of oncogenic lesions (except for the HCT116 isogenic cancer cell clones that are genetically identical except for p53 status). PSN-1, BxPC-3 and MiaPaCa2 are pancreatic carcinoma cell lines and A549 and H460 are lung carcinoma cell lines. HT29, DLD-1, PSN-1, BxPC-3, A549 and H460 cell lines were cultured in RPMI-1640 growth media (Sigma) containing 2 mM L-glutamine, 1 mM sodium pyruvate and 10% foetal bovine serum (FBS). HCT116 (p53^+/+ and p53^−/−) and MiaPaCa2 cell lines were cultured in Dulbecco’s Modified Eagle’s Medium (Sigma), 2 mM L-glutamine and 10% FBS. The ARPE-19 retinal epithelial non-cancer cell line was cultured in DMEM/F12 media (Gibco), 2 mM L-glutamine, 1 mM sodium pyruvate and 10% FBS. The MCF10A non-cancerous human breast epithelial cell line was cultured in Minimal Essential Media Eagle (Sigma), 2 mM L-glutamine, 1 mM sodium pyruvate, 10% FBS and 1x non-essential amino acids (NEAA). NP1 and GBM1 cells were cultured on plasticware coated with poly-L-ornithine (5 µg/ml) and laminin (2.4 µg/ml)[32],[33]. NP1 cells were grown in DMEM/F12 media (Gibco) supplemented with 5% FBS, 20 ng/ml hFGF, 20 ng/ml rhEGF, 0.5x B-27 supplement (Gibco), 0.5x N-2 supplement (Gibco) and 1x GLUTAMAX (Gibco). GBM1 cells were cultured in Neurobasal media (Gibco) supplemented with 40 ng/ml hFGF, 40 ng/ml rhEGF, 0.5x B-27 supplement (Gibco) and 0.5x N-2 supplement (Gibco).
(§3) [L2(Metal)3]^6+ and all the other self-assembling complexes were freshly formed by adding DMSO to individual components and mixing together by pipetting. These were then further diluted in cell culture media such that the final DMSO concentration that cells were exposed to was 0.2% (vehicle control). Cisplatin, oxaliplatin and carboplatin were dissolved in phosphate buffered saline. Cell lines were seeded into 96 well plates at 2 × 10^3 cells per well and incubated overnight at 37 °C. GBM1 cancer stem-like cells were seeded at 3 × 10^3 cells per well and NP1 neural progenitors were seeded at 1.5 × 10^3 cells per well. The following day, media was removed and replaced with fresh media containing test compounds at a range of concentrations. Cells were incubated with test compounds for a further 96 h after which the media was removed and replaced with fresh media (200 μl/well). MTT was added (20 μl at 5 mg/ml) and cells were incubated for a further 4 h. Media and MTT were removed and formazan crystals were dissolved in 150 μl of DMSO and the absorbance of the resulting solution determined at 540 nm. Dose response curves were constructed, and the concentration required to reduce cell growth by 50% (IC50) determined.

HCT116 p53-/- = details: for Selectivity index (ARPE19): IC50 ARPE-19 / IC50 HCT116 p53-/-; for SI (ARPE19): mean IC50 ARPE-19 / mean IC50 HCT116 p53-/-
Source text: as §1, §2, §3

HCT116 p53+/+ = details: for Selectivity index (ARPE19): IC50 ARPE-19 / IC50 HCT116 p53+/+; for SI (ARPE19): mean IC50 ARPE-19 / mean IC50 HCT116 p53+/+
Source text: as §1, §2, §3

MiaPaCa2 = details: for IC50: MiaPaCa2, 96 h, MTT; for SI (ARPE19): mean IC50 ARPE-19 / mean IC50 MiaPaCa2
Source text: as §1, §2, §3

[1] = ARPE19, individual replicate experiments, read-out: IC50 values
[2] = ARPE-19 non-cancer, read-out: Mean IC50 values
[3] = HCT116 p53-/-, individual replicate experiments, read-out: IC50 values
[4] = HCT116 p53-/-, read-out: Mean IC50 values
[5] = HCT116 p53+/+, individual replicate experiments, read-out: IC50 values
[6] = HCT116 p53+/+, read-out: Mean IC50 values
[7] = ARPE-19, 96 h, MTT, individual run, read-out: IC50 values for each replicate
[8] = ARPE-19, 96 h, MTT, mean of at least 3 independent experiments, read-out: Mean IC50
[9] = individual run, read-out: IC50 values for each replicate
[10] = mean of at least 3 independent experiments, read-out: Mean IC50
[11] = HCT116 p53-/-, 96 h, MTT, individual run, read-out: IC50 values for each replicate
[12] = HCT116 p53-/-, 96 h, MTT, mean of at least 3 independent experiments, read-out: Mean IC50
[13] = HCT116 p53+/+, 96 h, MTT, individual run, read-out: IC50 values for each replicate
[14] = HCT116 p53+/+, 96 h, MTT, mean of at least 3 independent experiments, read-out: Mean IC50

Row | Structure (SMILES) | IC50 (ARPE-19 non-cancer cells; [1]) | IC50 (ARPE-19 non-cancer cells; [2]) [µM] | IC50 (HCT116 p53-/-; [3]) | IC50 (HCT116 p53-/-; [4]) [nM] | Selectivity index (ARPE19) (HCT116 p53-/-) | IC50 (HCT116 p53+/+; [5]) | IC50 (HCT116 p53+/+; [6]) [nM] | Selectivity index (ARPE19) (HCT116 p53+/+) | IC50 (ARPE-19 non-cancer cells; [7]) | IC50 (ARPE-19 non-cancer cells; [8]) [µM] | IC50 (MiaPaCa2; [9]) | IC50 (MiaPaCa2; [10]) [µM] | SI (ARPE19) (MiaPaCa2) | IC50 (HCT116 p53-/-; [11]) | IC50 (HCT116 p53-/-; [12]) [nM] | SI (ARPE19) (HCT116 p53-/-) | IC50 (HCT116 p53+/+; [13]) | IC50 (HCT116 p53+/+; [14]) [nM] | SI (ARPE19) (HCT116 p53+/+) | other results
1 | [Cu+2].c1ccc(-c2csc(NCCN(CCNc3nc(-c4ccccn4)cs3)CCNc3nc(-c4ccccn4)cs3)n2)nc1 [[LCu]2+] | 5.93 µM and 5.5 µM and 6.33 µM | 5.92 | 49 nM and 45 nM and 83 nM | 59 | 100.09 | 512 nM and 583 nM and 251 nM | 449 | 13.19 | – | – | – | – | – | – | – | – | – | – | – | –
2 | N.N.[Cl][Pt][Cl] [Cisplatin, cisplatin, reference compound] | – | – | – | – | – | – | – | – | 6.07 µM and 7.48 µM and 5.69 µM | 6.41 | 3.69 µM and 2.84 µM and 4.32 µM | 3.62 | 1.771 | 7140 nM and 7160 nM and 8270 nM | 7520 | 0.852 | 2840 nM and 3350 nM and 3580 nM | 3260 | 1.966 | –
3 | [Zn+2].c1ccc(-c2csc(NCCN(CCNc3nc(-c4ccccn4)cs3)CCNc3nc(-c4ccccn4)cs3)n2)nc1 [[LZn]2+] | 5.39 µM and 4.76 µM and 5.09 µM | 5.08 | 54 nM and 63 nM and 87 nM | 68 | 74.47 | 483 nM and 549 nM and 244 nM | 425 | 11.94 | – | – | – | – | – | – | – | – | – | – | – | –
4 | c1ccc(-c2csc(NCCN(CCNc3nc(-c4ccccc4)cs3)CCNc3nc(-c4ccccc4)cs3)n2)cc1 [L] | 4.96 µM and 6.38 µM | – | 74 nM and 81 nM | – | 77.506 | 173 nM and 524 nM and 141 nM | – | 19.369 and 19.36 | – | – | – | – | – | – | – | – | – | – | – | IC50 (ARPE-19 non-cancer cells; Homo sapiens, ARPE-19, ARPE19, individual replicate experiments, read-out: IC50 values): 4.89 µM; IC50 (ARPE-19 non-cancer cells; Homo sapiens, ARPE-19, ARPE-19 non-cancer, read-out: Mean IC50 values): 5.41 µM; IC50 (HCT116 p53-/-; Homo sapiens, HCT-116, HCT116 p53-/-, individual replicate experiments, read-out: IC50 values): 54 nM; IC50 (HCT116 p53-/-; Homo sapiens, HCT-116, HCT116 p53-/-, read-out: Mean IC50 values): 70 nM; IC50 (HCT116 p53+/+; Homo sapiens, HCT-116, HCT116 p53+/+, read-out: Mean IC50 values): 279 nM
5 | O=C1[O][Pt]2([NH][C@@H]3CCCC[C@H]3[NH]2)[O]C1=O [Oxaliplatin, oxaliplatin, reference compound] | – | – | – | – | – | – | – | – | 2.83 µM and 3.1 µM and 3.39 µM | 3.12 | 5.23 µM and 7.06 µM and 7.02 µM | 6.44 | 0.484 | 5460 nM and 2460 nM and 3060 nM | 3670 | 0.850 | 1050 nM and 890 nM and 840 nM | 930 | 3.355 | –
6 | N.N.O=C([O-])C1(C(=O)[O-])CCC1.[Pt+2] [Carboplatin, carboplatin, reference compound] | – | – | – | – | – | – | – | – | 87.6 µM and 79 µM and 66.6 µM | 77.7 | 30.3 µM and 44.7 µM and 31.8 µM | 35.6 | 2.184 | 45800 nM and 28200 nM and 33100 nM | 35700 | 2.177 | 43300 nM and 21000 nM and 32800 nM | 32400 | 2.401 | –
